The NIST ThermoML archive (doi:10.1021/je200068x)
± gives the expanded uncertainty stated by the source.

Details: for surface tension liquid-gas: Drop weight; for mass density: 101.33 kPa, Liquid

| Compound | surface tension liquid-gas (293.15 K) [mN/m] | mass density (293.15 K) [kg/m3] | surface tension liquid-gas (298.15 K) [mN/m] | mass density (298.15 K) [kg/m3] | surface tension liquid-gas (303.15 K) [mN/m] | mass density (303.15 K) [kg/m3] | surface tension liquid-gas (308.15 K) [mN/m] | mass density (308.15 K) [kg/m3] | surface tension liquid-gas (313.15 K) [mN/m] | mass density (313.15 K) [kg/m3] | surface tension liquid-gas (318.15 K) [mN/m] | mass density (318.15 K) [kg/m3] | surface tension liquid-gas (323.15 K) [mN/m] | mass density (323.15 K) [kg/m3] | surface tension liquid-gas (328.15 K) [mN/m] | mass density (328.15 K) [kg/m3] | surface tension liquid-gas (333.15 K) [mN/m] | mass density (333.15 K) [kg/m3] | surface tension liquid-gas (338.15 K) [mN/m] | mass density (338.15 K) [kg/m3] | further results |
| --- | --- | --- | --- | --- | --- | --- | --- | --- | --- | --- | --- | --- | --- | --- | --- | --- | --- | --- | --- | --- | --- |
| C[n+]1ccn(CCCN)c1.F[B-](F)(F)F [1-(3-aminopropyl)-3-methyl-1H-imidazolium tetrafluoroborate] | 47.2 ± 0.5 | 1358.01 ± 1.8 | 47.1 ± 0.5 | 1354.6 ± 1.7 | 46.4 ± 0.5 | 1349.29 ± 1.7 | 46.2 ± 0.5 | 1345.68 ± 1.7 | 46.1 ± 0.5 | 1343.18 ± 1.7 | 45.4 ± 0.5 | 1336.97 ± 1.7 | 45.2 ± 0.5 | 1333.57 ± 1.7 | 44.8 ± 0.5 | 1328.96 ± 1.6 | 44.6 ± 0.5 | 1325.35 ± 1.6 | 44.1 ± 0.5 | 1321.05 ± 1.6 | surface tension liquid-gas (343.15 K): 43.8 ± 0.5 mN/m; mass density (343.15 K): 1317.25 ± 1.6 kg/m3; surface tension liquid-gas (348.15 K): 43.4 ± 0.5 mN/m; mass density (348.15 K): 1313.04 ± 1.6 kg/m3; surface tension liquid-gas (353.15 K): 43.1 ± 0.5 mN/m; mass density (353.15 K): 1309.44 ± 1.6 kg/m3 |
| Cn1cc[n+](CCN)c1.F[B-](F)(F)F [3-(2-aminoethyl)-1-methyl-1H-imidazolium tetrafluoroborate] | 53.8 ± 0.5 | 1427.12 ± 2 | 53.5 ± 0.5 | 1422.31 ± 2 | 53.2 ± 0.5 | 1418.96 ± 2 | 52.4 ± 0.5 | 1413.23 ± 2 | 52 ± 0.5 | 1409.18 ± 1.9 | 51.5 ± 0.5 | 1404.69 ± 1.9 | 51.3 ± 0.5 | 1401.78 ± 1.9 | 50.8 ± 0.5 | 1395.42 ± 1.9 | 50.3 ± 0.5 | 1391.77 ± 1.9 | 50.2 ± 0.5 | 1388.54 ± 1.9 | surface tension liquid-gas (343.15 K): 49.8 ± 0.5 mN/m; mass density (343.15 K): 1384.79 ± 1.9 kg/m3; surface tension liquid-gas (348.15 K): 49.4 ± 0.5 mN/m; mass density (348.15 K): 1380.94 ± 1.9 kg/m3; surface tension liquid-gas (353.15 K): 48.8 ± 0.5 mN/m; mass density (353.15 K): 1375.11 ± 1.8 kg/m3 |
